PMC11259170, “Small-molecule probe for IBD risk variant GPR65 I231L alters cytokine signaling networks through positive allosteric modulation” (Science Advances, 2024)
Read-outs that look alike come from different tables or passages of the source.

Columns and labels:
[1] = target: T1, mGPR65 (Mus musculus, UniProt Q61038); assay: cAMP detection in HeLa expression cell line, mGPR65; format: cell-based; conditions: for Emax: HeLa, read-out: mGPR Max Activity %; for Emax / mGPR Max Activity: relative to 100uM forskolin (100%) and DMSO (0%)
T1 construct: expressed in transfected cells; host or cells: HeLa (ATCC CCL-2), lentiviral transduction, pLX317
Description: (§1) HeLa stable expression cell lines were produced by lentiviral transduction. Briefly, lentiviral plasmids for each GPCR with a C-terminal V5 Tag ([…]) were made in a pLX317 backbone using competent Escherichia coli (New England Biolabs, C3050H). Lenti-X 293 T (Takara, 632810) cells were transfected with the lentiviral plasmids to produce virus. Low-passage HeLa cells (American Type Culture Collection, CCL-2) were then transduced with lentivirus. After 48 hours, HeLa cells were cultured under selection with puromycin (3 μg/ml) and allowed to recover and expand before storing stocks in liquid nitrogen.
(§2) cAMP was measured in cells using the Lance Ultra cAMP Kit. HeLa cells were cultured under puromycin (3 μg/ml) selection. One day before the experiment, cells were seeded in T75 flasks and allowed to adhere overnight. On the day of the experiment, cells were washed twice with Dulbecco’s PBS and lifted using prewarmed 1× versene solution (Gibco, 15040066). Cells were counted in HBSS (Gibco, 14025092) and then resuspended in stimulation buffer prepared according to the manufacturer’s instructions and adjusted to pH 7.2 using 1 M sodium hydroxide. Cells were added to the plate at a density of 1500 cells per well in white opaque 384-well assay ready microplates containing 100 nl of 10 mM compound in DMSO. Cells were stimulated for 30 min at RT, then lysed and incubated with detection reagents for 1 hour in the dark at RT. Plates were read on BMG Labtech PHERAstar FSX (excitation, 337 nm; emission, 620 and 665 nm). Data analysis was performed using GraphPad Prism.

[2] = target: T2, hGPR65 (Homo sapiens, UniProt Q8IYL9); assay: cAMP detection in HeLa expression cell line, hGPR65; format: cell-based; conditions: for Emax: HeLa, read-out: hGPR Max Activity %
T2 construct: expressed in transfected cells; host or cells: HeLa (ATCC CCL-2), lentiviral transduction, pLX317
Description: as §1, §2

[3] = 1st mGPR column pair, NA = no activity, read-out: mGPR EC50
[4] = 2nd mGPR column pair, NA = no activity, read-out: mGPR EC50
[5] = 2nd mGPR column pair, NA = no activity
[6] = 1st hGPR column pair, NA = no activity, read-out: hGPR EC50
[7] = 2nd hGPR column pair, NA = no activity, read-out: hGPR EC50
[8] = 1st hGPR column pair, relative to 100uM forskolin (100%) and DMSO (0%), NA = no activity
[9] = 2nd hGPR column pair, relative to 100uM forskolin (100%) and DMSO (0%), NA = no activity
[10] = first pair, relative to 100uM forskolin (100%) and DMSO (0%)
[11] = SAR cAMP assay, first EC50/Max pair of hGPR columns, read-out: hGPR EC50
[12] = 3rd mGPR column pair, NA = no activity, read-out: mGPR EC50
[13] = SAR cAMP assay, first EC50/Max pair, read-out: mGPR EC50

T2 sequence (Q8IYL9 whole entry): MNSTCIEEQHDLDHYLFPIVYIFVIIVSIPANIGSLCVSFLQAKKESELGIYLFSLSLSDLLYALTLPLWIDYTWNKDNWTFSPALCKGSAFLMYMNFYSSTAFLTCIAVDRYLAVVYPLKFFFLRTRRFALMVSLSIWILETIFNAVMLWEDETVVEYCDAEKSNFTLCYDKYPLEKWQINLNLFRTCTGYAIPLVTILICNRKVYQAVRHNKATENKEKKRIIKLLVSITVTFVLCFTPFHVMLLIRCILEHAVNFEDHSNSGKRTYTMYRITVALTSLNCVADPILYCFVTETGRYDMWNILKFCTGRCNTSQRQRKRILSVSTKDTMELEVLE
T1 sequence (Q61038 whole entry): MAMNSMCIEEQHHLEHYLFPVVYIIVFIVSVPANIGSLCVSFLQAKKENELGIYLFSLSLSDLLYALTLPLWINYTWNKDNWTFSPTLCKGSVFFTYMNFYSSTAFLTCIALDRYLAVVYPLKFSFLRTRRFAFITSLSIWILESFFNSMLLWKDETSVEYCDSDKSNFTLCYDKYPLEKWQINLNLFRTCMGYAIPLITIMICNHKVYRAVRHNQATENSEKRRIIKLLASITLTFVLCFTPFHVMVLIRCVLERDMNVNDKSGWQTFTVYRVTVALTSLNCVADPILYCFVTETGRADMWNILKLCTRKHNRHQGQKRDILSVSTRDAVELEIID

SMILES	EC50 [1, 3] [µM]	EC50 [1, 4] [µM]	Emax [1, 5] [%]	Emax ([1]; NA = no activity) [%]	EC50 [2, 6] [µM]	EC50 [2, 7] [µM]	Emax [2, 8] [%]	Emax [2, 9] [%]	also measured
COCc1ccc(-c2cc(O)n3ncc(C(=O)Nc4ccc(C(=O)OC)cc4)c3n2)cc1 [BRD0592]	0.82	0.563	57	64.1	1.27	1.25	68.9	68.2	–
Cc1ccc(NC(=O)c2cnn3c(O)cc(-c4ccc(-c5ccccc5O)cc4)nc23)cc1 [BRD1689]	1.58	2.04	45.5	54	3.57	5.62	79	74.3	–
Cc1ccc(NC(=O)c2cnn3c(O)cc(-c4ccc(F)cc4)nc23)cc1 [BRD1827]	1.37	1.29	43.8	43.6	0.635	0.963	78	77.5	–
COCc1ccc(-c2cc(O)n3ncc(C(=O)Nc4ccc(C(=O)N(C)C)cc4)c3n2)cc1 [BRD1926]	21.5	–	–	28.4	34.1	–	11	–	–
COCc1ccc(-c2cc(O)n3ncc(C(=O)Nc4cccc(C)c4)c3n2)cc1 [BRD1946]	0.501	1.51	57.2	63.6	4.89	4.97	80.4	76.2	–
Cc1ccc(NC(=O)c2cnn3c(O)cc(-c4ccc(Cl)cc4)nc23)cc1 [BRD2007]	0.644	0.64	22.7	24.9	0.409	0.247	79.1	81.4	–
COCc1ccc(-c2cc(OC)n3ncc(C(=O)Nc4ccc(C)cc4)c3n2)cc1 [BRD2344]	0.737	–	–	4.13	–	–	–	–	–
COCc1ccc(-c2cc(O)n3nccc3n2)cc1 [BRD2453]	–	–	–	–	18.6	–	11.7	–	–
Cc1ccc(NC(=O)c2cnn3c(O)cc(Cc4c[nH]c5ccccc45)nc23)cc1 [BRD2917]	18.9	–	–	7.25	–	–	–	–	–
Cc1ccc(NC(=O)c2cnn3c(O)cc(-c4ccc(Oc5ccccc5)cc4)nc23)cc1 [BRD3067]	–	–	–	–	–	–	–	–	Emax [2, 10]: 36.3%; EC50 [2, 11]: 11.1 µM
COCc1ccc(-c2cc(O)n3ncc(C(=O)N4CCS(=O)(=O)CC4)c3n2)cc1 [BRD3128]	–	–	–	–	11	–	3.44	–	–
COCc1ccc(-c2cc(O)n3ncc(C(=O)Nc4ccc(F)cc4)c3n2)cc1 [BRD3674]	–	4.12	7.69	–	27.9	–	43.3	–	–
COCc1ccc(-c2cc(O)n3ncc(C(=O)NCc4ccc(C)cc4)c3n2)cc1 [BRD4305]	2.31	1.44	36.9	67.8	–	–	–	–	EC50 [1, 12]: 1.07 µM; mGPR Max Activity ([1]; NA = no activity): 60.85%
Cc1ccc(NC(=O)c2cnn3c(O)cc(-c4ccc(-c5ccc(O)cc5)cc4)nc23)cc1 [BRD4475]	–	–	–	–	–	–	–	–	Emax ([1]; first pair): 30.5%; EC50 [1, 13]: 1.66 µM; Emax [2, 10]: 22.6%; EC50 [2, 11]: 10.6 µM
Cc1ccc(NC(=O)c2cnn3c(O)cc(C(C)Cn4nccc4C)nc23)cc1 (centres unmarked) [BRD4822]	2.82	4.33	25.4	42	–	–	–	–	EC50 [1, 12]: 1.19 µM; mGPR Max Activity ([1]; NA = no activity): 35.73%
COc1cc(-c2cc(O)n3ncc(C(=O)Nc4ccc(C)cc4)c3n2)ccc1Cl [BRD5061]	0.794	–	20.1	23.4	0.942	1.57	72.2	60.5	–
Cc1ccc(NC(=O)c2cnn3c(O)cc(-c4ccc(N5CCOCC5)nc4)nc23)cc1 [BRD5064]	3.41	4.29	33.9	37.4	5.02	28.4	56.7	100	–

SMILES	EC50 [1, 3] [µM]	EC50 [1, 4] [µM]	Emax [1, 5] [%]	Emax ([1]; NA = no activity) [%]	EC50 [2, 6] [µM]	EC50 [2, 7] [µM]	Emax [2, 8] [%]	Emax [2, 9] [%]	also measured
Cc1ccc(NC(=O)c2cnn3c(O)cc(-c4cnc(N5CCOCC5)c(Cl)c4)nc23)cc1 [BRD5065]	0.513	1.16	51.8	56.5	2.39	1.87	49.7	39.5	–
Cc1ccc(NC(=O)c2cnn3c(O)cc(-c4ccc(N5CCN(C)CC5)c(Cl)c4)nc23)cc1 [BRD5068]	0.613	1.04	66.5	71	1.76	2.82	53.1	36.9	–
CC(C)OCc1ccc(-c2cc(O)n3ncc(C(=O)Nc4ccccn4)c3n2)cc1 [BRD5074]	9.32	–	–	78	7.02	8.96	84.1	75.9	–
Cc1cnc(NC(=O)c2cnn3c(O)cc(-c4ccc(COC(C)C)cc4)nc23)nc1 [BRD5076]	1.14	1.8	56.3	59.9	2	1.64	72.4	69.9	–
Cc1ccc(NC(=O)c2cnn3c(O)cc(-c4ccc(C(=O)NC(C)C)cc4)nc23)cc1 [BRD5085]	0.441	4.17	32.7	98.4	2.75	2.82	46.6	31.2	–
COCc1ccc(-c2cc(O)n3ncc(C(=O)Nc4ccc(OC)cc4)c3n2)cc1 [BRD5326]	–	–	55.6	56.3	–	–	83	82.7	EC50 ([1]; mGPR EC50 (uM), 2nd mGPR column pair, NA = no activity): 1.26 µM; EC50 ([1]; mGPR EC50 (uM), NA = no activity): 1.27 µM; cAMP production relative to BRD2813, mGPR65 ([1]; pH 7.2): slight improvement in mGPR65 activity; EC50 ([2]; hGPR EC50 (uM), NA = no activity): 1.26 µM; EC50 ([2]; hGPR EC50, NA = no activity): 0.903 µM; cAMP production relative to BRD2813, hGPR65 ([2]; pH 7.2): little effect on cAMP production
COc1cccc(Cc2cc(O)n3ncc(C(=O)Nc4ccc(C)cc4)c3n2)c1 [BRD5386]	2.01	2.17	16.4	39.5	–	–	–	–	EC50 [1, 12]: 0.425 µM; mGPR Max Activity ([1]; NA = no activity): 21.71%; EC50 ([2]; NA = no activity, read-out: hGPR EC50): 1.96 µM; hGPR Max Activity ([2]; relative to 100uM forskolin (100%) and DMSO (0%), NA = no activity): 4.575%
Cc1[nH]c2ccccc2c1Cc1cc(O)n2ncc(C(=O)Nc3ccccc3)c2n1 [BRD5828]	0.649	0.785	18.4	25.8	–	–	–	–	–
Cc1ccc(NC(=O)c2cnn3c(O)cc(CCc4c(C)n[nH]c4C)nc23)cc1 [BRD5908]	33	–	–	22.1	–	–	–	–	–
COc1ccc(-c2ccn3ncc(C(=O)Nc4ccc(C)cc4)c3n2)cc1 [BRD6737]	–	–	–	–	0.0844	–	7.95	–	–
COc1cccc(Cc2cc(O)n3ncc(C(=O)Nc4ccccc4)c3n2)c1 [BRD7897]	6.48	–	–	~22.7	–	–	–	–	–
Cc1ccc(NC(=O)c2cnn3c(O)cc(-c4ccc(-c5ccc(C(C)C)cc5)cc4)nc23)cc1 [BRD7984]	–	–	–	–	–	–	–	–	Emax ([1]; first pair): 12.4%; EC50 [1, 13]: 0.11 µM
Cc1ccc(NC(=O)c2cnn3c(O)cc(-c4ccc(N5CCCN(C)CC5)cc4)nc23)cc1 [BRD8425]	–	–	–	–	–	–	–	–	Emax ([1]; first pair): 65.4%
Cc1ccc(NC(=O)c2cnn3c(O)cc(CCc4c(C)noc4C)nc23)cc1 [BRD8568]	–	–	–	–	3.06	–	3.77	–	–
CCN1CC(c2cc(O)n3ncc(C(=O)Nc4ccc(Cl)cc4)c3n2)CC1=O (centres unmarked) [BRD8856]	0.662	–	–	10.9	–	–	–	–	–
CCOC(=O)c1cnn2c(O)cc(C)nc12 [BRD9804]	–	–	–	–	77.6	–	5.41	–	–
